Test results taken from US8293724B2, “Therapeutic applications of fatty acid amide hydrolase inhibitors” (The United States of America, as represented by the …, priority 2007, dated 2012).

How the values were obtained:
[1] = Non-fasting blood glucose in SHR and WKY; settings: AM3506 1 mg/kg i.p., n=6
FAAH [2] = biological target: T1, FAAH (Rattus norvegicus, UniProt P97612); assay: FAAH inhibition in vitro, crude rat brain homogenate with [3H]anandamide; format: biochemical
T1 construct: from tissue; host or cells: liver of SHR and WKY rats treated in vivo
T1 sequence (P97612 1-579): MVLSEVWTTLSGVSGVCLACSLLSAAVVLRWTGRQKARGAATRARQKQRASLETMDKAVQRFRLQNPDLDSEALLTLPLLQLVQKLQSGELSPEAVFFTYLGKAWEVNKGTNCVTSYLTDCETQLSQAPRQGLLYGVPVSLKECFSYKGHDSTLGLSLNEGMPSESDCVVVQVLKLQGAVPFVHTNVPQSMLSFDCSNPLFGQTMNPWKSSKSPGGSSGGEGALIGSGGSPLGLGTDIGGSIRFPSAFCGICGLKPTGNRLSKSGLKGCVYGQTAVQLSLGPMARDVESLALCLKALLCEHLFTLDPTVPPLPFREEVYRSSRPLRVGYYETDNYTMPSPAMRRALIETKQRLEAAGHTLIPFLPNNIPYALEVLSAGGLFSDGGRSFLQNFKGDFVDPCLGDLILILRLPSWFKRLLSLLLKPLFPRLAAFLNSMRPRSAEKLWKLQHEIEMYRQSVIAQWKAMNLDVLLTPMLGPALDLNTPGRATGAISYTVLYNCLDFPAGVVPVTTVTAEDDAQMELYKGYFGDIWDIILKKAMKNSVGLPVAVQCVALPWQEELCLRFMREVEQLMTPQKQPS
Description: This example describes a general method for assaying FAAH inhibition by the disclosed compounds and determining their IC50 values in vitro (Deutsch, D. G. and S. A. Chin, Biochem. Pharmacol. 46:791-796 (1993)). The indicated amount of each compound was preincubated in a buffer consisting of 300 μg of crude rat brain homogenate protein, 500 μg/ml fatty acid-free bovine serum albumin, in phosphate-buffered saline in a final volume of 1.0 ml, for 10 minutes at 37° C. Crude rat brain homogenate was obtained by decapitating female adult Sprague-Dawley rats, dissecting the desired tissue and homogenizing in five volumes of ice-cold TE (10 mM Tris-HCl, 1 mM EDTA, pH 7.6). Substrate ([…] anandamide+0.2 µCi of 221 Ci/mmol [^3H]anandamide ([arachidonyl-5,6,8,9,11,12,14,15-^3H]ethanolamide)) was then added and the samples incubated for 10 minutes. The reaction was quenched by the addition of chloroform:methanol (1:1) and enzyme activity was analyzed by TLC.

CB2 cannabinoid receptor = CB2 cannabinoid receptor (Homo sapiens, UniProt P34972); assay: Affinity for the CB2 cannabinoid receptor; format: binding
FAAH [3] = biological target: T2, FAAH (Mus musculus, UniProt O08914); assay: FAAH activity in brain and liver homogenates following in vivo administration; set-up: species or system mice
T2 construct: the brain and liver removed, and tissue homogenates prepared as described above; from tissue; host or cells: mouse brain and liver homogenates after in vivo dosing
T2 sequence (O08914 1-579): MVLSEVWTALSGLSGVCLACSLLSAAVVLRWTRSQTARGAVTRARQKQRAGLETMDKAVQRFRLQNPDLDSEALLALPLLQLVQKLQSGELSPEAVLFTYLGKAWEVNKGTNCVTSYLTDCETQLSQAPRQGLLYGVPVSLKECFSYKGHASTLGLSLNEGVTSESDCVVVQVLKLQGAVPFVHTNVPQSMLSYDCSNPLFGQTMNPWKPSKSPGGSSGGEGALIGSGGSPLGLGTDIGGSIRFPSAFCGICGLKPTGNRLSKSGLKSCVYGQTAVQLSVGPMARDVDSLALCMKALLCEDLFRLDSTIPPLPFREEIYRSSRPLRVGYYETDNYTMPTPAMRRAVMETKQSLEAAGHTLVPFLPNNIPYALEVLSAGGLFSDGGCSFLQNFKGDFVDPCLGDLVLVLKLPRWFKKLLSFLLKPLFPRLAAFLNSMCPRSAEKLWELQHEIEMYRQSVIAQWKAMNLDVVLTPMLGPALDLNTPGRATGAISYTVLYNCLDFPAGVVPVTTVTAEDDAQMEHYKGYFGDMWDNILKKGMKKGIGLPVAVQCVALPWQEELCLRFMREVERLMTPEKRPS
Description: For the experiments illustrated in FIG. 3, FAAH activity was assessed through a different method not requiring TLC separation, as described by Jonsson et al: Br. J. Pharmacol. 133:1263-1275, 1997. […] The mice were sacrificed one hour later, the brain and liver removed, and tissue homogenates prepared as described above. [^3H]Anandamide labeled on the ethanolamide moiety was added to the homogenate and incubated at 37° C. for 10 min. The homogenate was then extracted twice with chloroform:methanol 1:1 and the radioactivity in the aqueous phase (containing the released ethanolamide) was counted.

Sequence of CB2 cannabinoid receptor (P34972 whole entry): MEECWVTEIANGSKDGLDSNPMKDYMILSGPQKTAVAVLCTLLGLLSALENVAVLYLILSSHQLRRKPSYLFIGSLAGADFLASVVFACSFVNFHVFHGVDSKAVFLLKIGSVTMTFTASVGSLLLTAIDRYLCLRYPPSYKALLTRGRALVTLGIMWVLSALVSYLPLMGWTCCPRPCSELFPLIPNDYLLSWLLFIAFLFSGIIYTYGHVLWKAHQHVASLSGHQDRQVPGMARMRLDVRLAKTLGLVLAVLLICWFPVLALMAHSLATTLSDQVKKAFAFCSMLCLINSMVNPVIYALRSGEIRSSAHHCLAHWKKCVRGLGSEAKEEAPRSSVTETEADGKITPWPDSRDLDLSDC

O=S(=O)(F)CCCCCc1ccc(O)cc1 [AM3506]
non-fasting blood glucose after treatment ([1]; SHR, from 97.8±5.6): 97.8 ± 2.9 mg/dL
non-fasting blood glucose after treatment ([1]; WKY, from 114.5±5.3): 108.2 ± 4.5 mg/dL
Ki (FAAH [2]): 31 nM
Ki (CB2 cannabinoid receptor): 5.77 µM
inhibition of FAAH in liver (FAAH [3]; AM3506 1 mg/kg): devoid of inhibitory potency in liver
dose equivalence in inhibition of FAAH in brain (FAAH [3]; AM3506 1 mg/kg versus URB597 10 mg/kg): equieffective with 10 mg/kg URB597
